Like-named read-outs stand apart in the source and are kept apart here.
How the values were obtained:
[1] = system: NCI-H292 lung cancer cells; test: FDA drug screening, complete media vs cholesterol-free media without statin (TABLE 1); format: cell-based, human
[2] = system: NCI-H292 lung cancer cells; test: FDA drug screening, complete media vs cholesterol-free media with simvastatin (TABLE 2); format: cell-based, human
[3] = Complete minus Cholesterol-free, >0 enhanced anti-cancer activity, about 0 neutral, <0 antagonist
[4] = NCI-H292 cells, cholesterol-free media without statin, FDA drug library screen
[5] = NCI-H292 cells, complete media, FDA drug library screen
[6] = NCI-H292 cells, drug in cholesterol-free media with simvastatin 0.04 μM
[7] = NCI-H292 cells, drug in complete media
[8] = complete media vs cholesterol-free media + simvastatin (0.04 μM), >0 enhanced anti-cancer activity, about 0 neutral, <0 antagonist
[9] = Complete minus Cholesterol-free, greater than 0 enhanced anti-cancer activity, about 0 neutral, below 0 antagonists
[10] = NCI-H292 cells in cholesterol-free media without statin
[11] = NCI-H292 cells in complete media
[12] = NCI-H292 cells, cholesterol-free media with simvastatin 0.04 μM, FDA drug library screen (TABLE 2)
[13] = NCI-H292 cells, complete media, FDA drug library screen (TABLE 2)
[14] = complete media minus cholesterol-free media + simvastatin (0.04 μM), >0 enhanced anti-cancer activity, about 0 neutral, <0 antagonist
[15] = NCI-H292 cells, cholesterol-free media with simvastatin 0.04 μM, cell growth value in FDA drug screen
[16] = NCI-H292 cells, complete media, cell growth value in FDA drug screen
[17] = complete media minus cholesterol-free media + simvastatin, >0 enhanced anti-cancer activity, about 0 neutral, <0 antagonist
[18] = NCI-H292 cells, cholesterol-free media without statin
[19] = complete vs cholesterol-free media, greater than 0 enhanced anti-cancer activity, about 0 neutral, below 0 antagonists
[20] = Complete minus Cholesterol-free, […]
[21] = complete media vs cholesterol-free media + simvastatin (0.04 μM), […]
[22] = complete vs cholesterol-free media, […]
[23] = NCI-H292 cells, FDA drug library screen, cholesterol-free media with simvastatin 0.04 μM
[24] = NCI-H292 cells, FDA drug library screen, complete media
[25] = NCI-H292 cells, cholesterol-free media with simvastatin 0.04 μM, […]
[26] = NCI-H292 cells, complete media, […]
[27] = complete media minus cholesterol-free media + simvastatin, […]
[28] = complete media minus cholesterol-free media + simvastatin (0.04 μM), […]

Setiptiline (maleate)
Difference [1, 3]: 0.02
Cholesterol-free [1, 4]: 0.9606
Complete [1, 5]: 0.9832
Cholesterol-free media + simvastatin (0.04 μM) [2, 6]: 1.022
Complete Media [2, 7]: 0.7709
Difference [2, 8]: −0.25

Sildenafil (citrate)
Difference [1, 9]: −0.63
Cholesterol-free [1, 10]: 1.504
Complete [1, 11]: 0.8696
Cholesterol-free media + simvastatin (0.04 μM) [2, 12]: 0.9766
Complete Media [2, 13]: 0.9106
Difference [2, 14]: −0.07

Sisomicin (sulfate)
Difference [1, 3]: −0.04
Cholesterol-free [1, 4]: 0.9293
Complete [1, 5]: 0.8918
Cholesterol-free media + simvastatin (0.04 μM) [2, 15]: 0.697
Complete Media [2, 16]: 0.7346
Difference [2, 17]: 0.04

Sitagliptin (phosphate monohydrate)
Cholesterol-free [1, 18]: 1.047
Complete ([1]; NCI-H292 cells, complete media): 0.6455
Difference [1, 19]: −0.40
Cholesterol-free media + simvastatin (0.04 μM) [2, 6]: 1.13
Complete Media [2, 7]: 0.959
Difference [2, 8]: −0.17

Sodium tauroglycocholate
Difference [1, 20]: −0.95
Cholesterol-free [1, 10]: 1.712
Complete [1, 11]: 0.7634
Cholesterol-free media + simvastatin (0.04 μM) ([2]; NCI-H292 cells, FDA library drug in cholesterol-free media with simvastatin 0.04 μM): 1.256
Complete Media ([2]; NCI-H292 cells, FDA library drug in complete media): 0.9729
Difference [2, 21]: −0.28

Solifenacin (Succinate)
Cholesterol-free [1]: 1.612
Complete [1]: 1.244
Difference [1]: −0.37
Cholesterol-free media + simvastatin (0.04 μM) [2]: 0.8847
Complete Media [2]: 0.7655
Difference [2]: −0.12

Sorafenib (Tosylate)
Cholesterol-free [1, 4]: 0.8797
Complete [1, 5]: 0.9619
Difference [1, 22]: 0.08
Cholesterol-free media + simvastatin (0.04 μM) [2, 23]: 1.142
Difference [2, 21]: −0.09

Spiramycin
Difference [1, 9]: −1.20
Cholesterol-free [1, 10]: 2.038
Complete [1, 11]: 0.8421
Cholesterol-free media + simvastatin (0.04 μM) [2, 6]: 1.277
Difference [2, 8]: −0.16

Streptomycin (sulfate)
Difference [1, 20]: −1.05
Cholesterol-free [1, 10]: 2.317
Complete [1, 11]: 1.265
Cholesterol-free media + simvastatin (0.04 μM) [2, 6]: 1.77
Complete Media [2, 7]: 1.586
Difference [2, 21]: −0.18

Sulconazole (nitrate)
Difference [1, 3]: 0.04
Cholesterol-free [1, 4]: 0.9221
Complete [1, 5]: 0.9667
Cholesterol-free media + simvastatin (0.04 μM) [2, 23]: 0.3022
Complete Media [2, 24]: 0.9753
Difference [2, 17]: 0.67

Sultamicillin (tosylate)
Cholesterol-free [1, 18]: 1.337
Complete ([1]; NCI-H292 cells, complete media): 1.021
Difference [1, 19]: −0.32
Cholesterol-free media + simvastatin (0.04 μM) [2, 15]: 1.072
Complete Media [2, 16]: 1.191
Difference [2, 17]: 0.12

Sumatriptan (succinate)
Cholesterol-free [1]: 0.9558
Complete [1]: 2.035
Difference [1]: 1.08
Cholesterol-free media + simvastatin (0.04 μM) [2]: 1.195
Complete Media [2]: 0.8897
Difference [2]: −0.31

Tafenoquine (Succinate)
Difference [1, 3]: −0.06
Cholesterol-free [1, 4]: 1.252
Complete [1, 5]: 1.196
Cholesterol-free media + simvastatin (0.04 μM) [2, 23]: 1.136
Complete Media [2, 24]: 1.045
Difference [2, 8]: −0.09

Tamoxifen (Citrate)
Cholesterol-free [1]: 0.4962
Complete [1]: 0.576
Difference [1]: 0.08
Cholesterol-free media + simvastatin (0.04 μM) [2]: 0.9205
Complete Media [2]: 0.7671
Difference [2]: −0.15

Tandospirone (citrate)
Cholesterol-free [1, 18]: 1.167
Complete ([1]; NCI-H292 cells, complete media): 0.8565
Difference [1, 19]: −0.31
Difference [2, 14]: 0.00

Tedizolid (phosphate)
Difference [1, 3]: −0.01
Cholesterol-free [1, 4]: 0.8406
Complete [1, 5]: 0.8345
Cholesterol-free media + simvastatin (0.04 μM) [2, 15]: 0.7735
Complete Media [2, 16]: 0.8096
Difference [2, 17]: 0.04

Tegaserod (maleate)
Difference [1, 20]: −0.26
Cholesterol-free [1, 18]: 0.9824
Complete ([1]; NCI-H292 cells, complete media): 0.7272
Cholesterol-free media + simvastatin (0.04 μM) [2, 25]: 0.7216
Complete Media [2, 26]: 0.7473
Difference [2, 27]: 0.03

Tenofovir alafenamide hemifumarate
Cholesterol-free [1]: 0.4256
Complete [1]: 0.5492
Difference [1]: 0.12
Cholesterol-free media + simvastatin (0.04 μM) [2]: 0.5107
Complete Media [2]: 0.4195
Difference [2]: −0.09

Teprenone
Cholesterol-free [1, 18]: 1.353
Difference [1, 22]: −0.31
Cholesterol-free media + simvastatin (0.04 μM) [2, 23]: 1.117
Complete Media [2, 24]: 0.9777
Difference [2, 21]: −0.14

Terbutaline (sulfate)
Difference [1, 3]: −0.29
Cholesterol-free [1, 18]: 1.263
Complete ([1]; NCI-H292 cells, complete media): 0.9738
Cholesterol-free media + simvastatin (0.04 μM) [2, 23]: 1.189
Difference [2, 8]: −0.15

Thiamine nitrate
Difference [1, 3]: −0.26
Cholesterol-free [1, 18]: 0.9749
Complete ([1]; NCI-H292 cells, complete media): 0.7175
Cholesterol-free media + simvastatin (0.04 μM) [2, 6]: 0.9067
Complete Media [2, 7]: 0.7018
Difference [2, 8]: −0.20

Thymopentin (acetate)
Cholesterol-free [1, 4]: 0.9838
Complete [1, 5]: 1.095
Difference [1, 22]: 0.11
Complete Media [2, 13]: 1.151
Difference [2, 28]: 0.00

Toceranib (phosphate)
Cholesterol-free [1, 18]: 1.278
Complete ([1]; NCI-H292 cells, complete media): 0.9469
Difference [1, 19]: −0.33
Cholesterol-free media + simvastatin (0.04 μM) [2, 23]: 0.9001
Difference [2, 17]: 0.14

Tocofersolan
Cholesterol-free [1, 18]: 0.7811
Complete ([1]; NCI-H292 cells, complete media): 0.4609
Difference [1, 22]: −0.32
Cholesterol-free media + simvastatin (0.04 μM) [2, 23]: 0.3462
Complete Media [2, 24]: 0.6285
Difference [2, 27]: 0.28

Tofacitinib (citrate)
Difference [1, 3]: −0.26
Cholesterol-free [1, 18]: 0.8106
Complete ([1]; NCI-H292 cells, complete media): 0.5473
Cholesterol-free media + simvastatin (0.04 μM) [2, 6]: 0.9122
Complete Media [2, 7]: 0.6806
Difference [2, 8]: −0.23

Tolterodine (tartrate)
Cholesterol-free [1]: 1.873
Complete [1]: 0.9529
Difference [1]: −0.92
Cholesterol-free media + simvastatin (0.04 μM) [2]: 1.183
Complete Media [2]: 1.127
Difference [2]: −0.06

Toremifene (citrate)
Complete [1]: 0.7656
Difference [1]: −0.28
Cholesterol-free media + simvastatin (0.04 μM) [2]: 0.4491
Difference [2]: 0.61

Tosufloxacin (tosylate hydrate)
Cholesterol-free [1, 18]: 1.21
Complete ([1]; NCI-H292 cells, complete media): 0.8679
Difference [1, 19]: −0.34
Cholesterol-free media + simvastatin (0.04 μM) [2, 23]: 1.004
Complete Media [2, 24]: 0.9272
Difference [2, 8]: −0.08

Trelagliptin (succinate)
Cholesterol-free [1, 18]: 1.469
Complete ([1]; NCI-H292 cells, complete media): 1.135
Difference [1, 19]: −0.33
Cholesterol-free media + simvastatin (0.04 μM) [2, 23]: 1.757
Complete Media [2, 24]: 1.617
Difference [2, 8]: −0.14

Triamcinolone (acetonide)
Difference [1, 3]: −0.04
Cholesterol-free [1, 4]: 0.5663
Complete [1, 5]: 0.5288
Cholesterol-free media + simvastatin (0.04 μM) [2, 12]: 0.6359
Complete Media [2, 13]: 0.588
Difference [2, 14]: −0.05

Trimebutine (maleate)
Difference [1, 20]: −0.13
Cholesterol-free ([1]; NCI-H292 cells, FDA drug library screen, cholesterol-free media without statin): 0.9442
Complete [1, 24]: 0.8142
Cholesterol-free media + simvastatin (0.04 μM) [2, 23]: 0.6516
Complete Media [2, 24]: 0.9282
Difference [2, 27]: 0.28

Trimipramine (maleate)
Difference [1, 9]: −0.51
Cholesterol-free [1, 10]: 1.537
Complete [1, 11]: 1.022
Cholesterol-free media + simvastatin (0.04 μM) [2, 23]: 1.033
Complete Media [2, 24]: 1.193
Difference [2, 17]: 0.16

Valemetostat (tosylate)
Cholesterol-free [1, 18]: 1.464
Complete ([1]; NCI-H292 cells, complete media): 1.052
Difference [1, 22]: −0.41
Cholesterol-free media + simvastatin (0.04 μM) [2, 6]: 1.195
Complete Media [2, 7]: 0.9379
Difference [2, 21]: −0.26

Varenicline (Tartrate)
Difference [1, 20]: −0.52
Cholesterol-free [1, 10]: 1.334
Complete [1, 11]: 0.8157
Cholesterol-free media + simvastatin (0.04 μM) [2, 12]: 1.729
Complete Media [2, 13]: 1.705
Difference [2, 28]: −0.02

Verteporfin
Difference [1, 3]: −0.04
Cholesterol-free [1, 4]: 0.26
Complete [1, 5]: 0.2188
Cholesterol-free media + simvastatin (0.04 μM) [2, 23]: 0.616
Complete Media [2, 24]: 0.9298
Difference [2, 17]: 0.31

Vinblastine (sulfate)
Difference [1, 20]: 0.04
Cholesterol-free [1, 4]: 0.05138
Complete [1, 5]: 0.09114
Cholesterol-free media + simvastatin (0.04 μM) [2, 23]: 0.2181
Complete Media [2, 24]: 0.1119
Difference [2, 21]: −0.11

Vincristine (sulfate)
Difference [1, 20]: 0.02
Cholesterol-free [1, 4]: 0.04497
Complete [1, 5]: 0.06722
Cholesterol-free media + simvastatin (0.04 μM) [2, 12]: 0.1488
Complete Media [2, 13]: 0.1119
Difference [2, 28]: −0.04

Vitamin B12
Difference [1, 20]: −0.19
Complete ([1]; NCI-H292 cells, complete media): 0.9199
Cholesterol-free media + simvastatin (0.04 μM) [2, 25]: 1.198
Complete Media [2, 26]: 1.289
Difference [2, 27]: 0.09
